Values joined by “and” are separate entries in the source; they are usually repeats but may differ in a detail not shown here. Equal values may be shown once. ± gives the expanded uncertainty stated by the source.
Columns and labels:
[1] = for Triple point temperature: DSC
[2] = Molar enthalpy of transition or fusion; conditions: DSC
[3] = molar heat capacity at constant pressure; conditions: 100 kPa, Extra sensitive DSC

CC(C)[C@@H]1CC[C@@H](C)C[C@H]1O (racemic) [DL-menthol]
Conditions | molar heat capacity at constant pressure [J/K/mol] | vapor or sublimation pressure
[1], 273.65 K, Crystal 1 | – | 0.000259 ± 0.00011 kPa
[1], 273.66 K, Crystal 1 | – | 0.000261 ± 0.00011 kPa
[1], 277.57 K, Crystal 1 | – | 0.000442 ± 0.00011 kPa
[1], 277.59 K, Crystal 1 | – | 0.000442 ± 0.00011 kPa
[1], 277.6 K, Crystal 1 | – | 0.00044 ± 0.00011 kPa
[1], 278.16 K, Crystal 1 | – | 0.00048 ± 0.00011 kPa and 0.000479 ± 0.00011 kPa and 0.000477 ± 0.00011 kPa
[1], 278.28 K, Metastable crystal | – | 0.000597 ± 0.00021 kPa and 0.000607 ± 0.00021 kPa
[1], 278.29 K, Metastable crystal | – | 0.00061 ± 0.00021 kPa
[1], 282.56 K, Crystal 1 | – | 0.000853 ± 0.00011 kPa
[1], 282.57 K, Crystal 1 | – | 0.000852 ± 0.00011 kPa
[1], 282.59 K, Crystal 1 | – | 0.000854 ± 0.00011 kPa
[1], 283.12 K, Metastable crystal | – | 0.00109 ± 0.00021 kPa
[1], 283.13 K, Metastable crystal | – | 0.0011 ± 0.00021 kPa and 0.001093 ± 0.00021 kPa
[1], 283.15 K, Crystal 1 | – | 0.000922 ± 0.00011 kPa
[1], 283.16 K, Crystal 1 | – | 0.000921 ± 0.00011 kPa and 0.000926 ± 0.00011 kPa
[1], 287.34 K, Crystal 1 | – | 0.001562 ± 0.00011 kPa
[1], 287.43 K, Crystal 1 | – | 0.001579 ± 0.00011 kPa
[1], 287.59 K, Crystal 1 | – | 0.001607 ± 0.00011 kPa
[1], 288.14 K, Metastable crystal | – | 0.002021 ± 0.00021 kPa and 0.00201 ± 0.00021 kPa
[1], 288.15 K, Metastable crystal | – | 0.00201 ± 0.00021 kPa
[1], 288.16 K, Crystal 1 | – | 0.001734 ± 0.00011 kPa and 0.001736 ± 0.00011 kPa
[1], 292.79 K, Crystal 1 | – | 0.003041 ± 0.00012 kPa
[1], 292.84 K, Crystal 1 | – | 0.003054 ± 0.00012 kPa
[1], 292.9 K, Crystal 1 | – | 0.003078 ± 0.00012 kPa
[1], 293.14 K, Crystal 1 | – | 0.003173 ± 0.00012 kPa and 0.00318 ± 0.00012 kPa
[1], 293.14 K, Metastable crystal | – | 0.003615 ± 0.00021 kPa and 0.003596 ± 0.00021 kPa and 0.003627 ± 0.00021 kPa
[1], 293.14 K, Metastable liquid | – | 0.003971 ± 0.00012 kPa and 0.003966 ± 0.00012 kPa and 0.003969 ± 0.00012 kPa
[1], 293.15 K, Crystal 1 | – | 0.003183 ± 0.00012 kPa
[1], 293.54 K, Metastable liquid | – | 0.00414 ± 0.00012 kPa and 0.004147 ± 0.00012 kPa
[1], 293.55 K, Metastable liquid | – | 0.004144 ± 0.00012 kPa
[1], 298.13 K, Metastable liquid | – | 0.006551 ± 0.00013 kPa
[1], 298.14 K, Metastable crystal | – | 0.00634 ± 0.00022 kPa and 0.006361 ± 0.00022 kPa and 0.006351 ± 0.00022 kPa
[1], 298.14 K, Metastable liquid | – | 0.006556 ± 0.00013 kPa and 0.00655 ± 0.00013 kPa
[1], 298.16 K, Crystal 1 | – | 0.005733 ± 0.00013 kPa [middle of 4 runs]
[1], 298.17 K, Crystal 1 | – | 0.005739 ± 0.00014 kPa
[1], 298.18 K, Crystal 1 | – | 0.005738 ± 0.00014 kPa
[1], 298.45 K, Metastable liquid | – | 0.006763 ± 0.00016 kPa
[1], 298.46 K, Metastable liquid | – | 0.00678 ± 0.00016 kPa
[1], 298.47 K, Metastable liquid | – | 0.006777 ± 0.00016 kPa
[1], 303.13 K, Metastable liquid | – | 0.01059 ± 0.00016 kPa
[1], 303.14 K, Crystal 1 | – | 0.01009 ± 0.00015 kPa and 0.0101 ± 0.00015 kPa
[1], 303.14 K, Metastable liquid | – | 0.0106 ± 0.00016 kPa
[1], 303.15 K, Crystal 1 | – | 0.0101 ± 0.00015 kPa
[1], 303.17 K, Crystal 1 | – | 0.01013 ± 0.00023 kPa
[1], 303.19 K, Crystal 1 | – | 0.01017 ± 0.00023 kPa
[1], 303.2 K, Crystal 1 | – | 0.01019 ± 0.00023 kPa
[1], 303.42 K, Metastable liquid | – | 0.01089 ± 0.00025 kPa and 0.01091 ± 0.00025 kPa
[1], 303.43 K, Metastable liquid | – | 0.01091 ± 0.00025 kPa
[1], 308.14 K, Liquid | – | 0.01683 ± 0.00023 kPa and 0.01682 ± 0.00023 kPa and 0.01681 ± 0.00023 kPa
[1], 308.42 K, Liquid | – | 0.01728 ± 0.00038 kPa
[1], 308.43 K, Liquid | – | 0.01728 ± 0.00038 kPa and 0.01729 ± 0.00038 kPa
[1], 313.42 K, Liquid | – | 0.0268 ± 0.00058 kPa
[1], 313.43 K, Liquid | – | 0.02682 ± 0.00058 kPa
[1], 313.44 K, Liquid | – | 0.02686 ± 0.00058 kPa
[1], 318.39 K, Liquid | – | 0.04089 ± 0.00088 kPa
[1], 318.4 K, Liquid | – | 0.04092 ± 0.00088 kPa
[1], 318.42 K, Liquid | – | 0.041 ± 0.00089 kPa
[1], 323.41 K, Liquid | – | 0.06149 ± 0.0013 kPa and 0.06146 ± 0.0013 kPa
[1], 328.43 K, Liquid | – | 0.09086 ± 0.0019 kPa
[1], 333.43 K, Liquid | – | 0.1322 ± 0.0028 kPa
[1], 333.44 K, Liquid | – | 0.1323 ± 0.0028 kPa
[1], 338.35 K, Liquid | – | 0.188 ± 0.004 kPa
[1], 338.36 K, Liquid | – | 0.188 ± 0.004 kPa
[1], 343.2 K, Liquid | – | 0.2626 ± 0.0056 kPa
[1], 343.21 K, Liquid | – | 0.2628 ± 0.0056 kPa
[1], 348.1 K, Liquid | – | 0.3638 ± 0.0077 kPa
[1], 348.11 K, Liquid | – | 0.3638 ± 0.0077 kPa
[1], 353.03 K, Liquid | – | 0.4979 ± 0.011 kPa
[1], 362.97 K, Liquid | – | 0.9031 ± 0.019 kPa
[3], 265 K, Crystal 1 | 217.6 ± 8.4 | –
[3], 270 K, Crystal 1 | 221.3 ± 8.6 | –
[3], 270 K, Metastable crystal | 217.5 ± 8.4 | –
[3], 275 K, Crystal 1 | 225.3 ± 8.7 | –
[3], 275 K, Metastable crystal | 219.5 ± 8.5 | –
[3], 280 K, Crystal 1 | 229.5 ± 8.9 | –
[3], 280 K, Metastable crystal | 223.1 ± 8.6 | –
[3], 285 K, Crystal 1 | 234.2 ± 9.1 | –
[3], 285 K, Metastable crystal | 229 ± 8.9 | –
[3], 315.4 K, Liquid | 377.3 ± 15 | –
[3], 320 K, Liquid | 384.2 ± 15 | –
[3], 325 K, Liquid | 392 ± 15 | –
[3], 330 K, Liquid | 399.8 ± 16 | –
[3], 335 K, Liquid | 406.9 ± 16 | –
[3], 340 K, Liquid | 412.7 ± 16 | –
[3], 345 K, Liquid | 418.1 ± 16 | –
[3], 350 K, Liquid | 423.7 ± 16 | –
[3], 355 K, Liquid | 429 ± 17 | –

Conditions | Molar enthalpy of transition or fusion, [2] [kcal/mol] | Triple point temperature, [1] [K]
Crystal 1 | 3.27 ± 0.0956 | 305.7 ± 0.8
Metastable crystal | 2.37 ± 0.12 | 300.7 ± 0.8
